System: 699152-130-R-J1-PDC complex spheroid viability
Assay: Anticancer human tumor 699152-130-R-J1-PDC patient-derived pancreatic carcinoma cell line growth inhibition [POLQ]
Settings: for IC50: curve of first compound; for viability, T/C: stronger effect = lower value
Protocol: Multicellular complex tumor spheroid response to Polymerase (POL) inhibitors (novobiocin, ART-558, RP6685) in combination with a variety of drugs and investigational agents in selected tumor cell lines
The POL inhibitors (novobiocin, ART-558, and RP6685) were evaluated both individually and in combination with standard of care and investigational anticancer small molecules within a complex spheroid model of solid tumors. . Complex spheroids include a stromal component modeled by human endothelial cells (HUVEC) and fibroblasts modeled by human mesenchymal stem cells (MSCs). The concentration ranges selected for each drug and investigational agent were based upon clinically achievable concentrations if the clinical Cmax of the agent was known.
Compounds. The drugs and investigational agents: novobiocin (NSC847541), ART-558 (NSC835418), RP-6685 (NSC848927), peposertib (NSC802822), ceralasertib (NSC780249), elimusertib (NSC800525), camonsertib (NSC841442), AZD-1390 (NSC803789), olaparib (NSC753686), talazoparib (NSC767125), rucaparib (NSC756644), sotorasib (NSC818433), MRTX-1133 (NSC836407), SN-38 (NSC673596), topotecan (NSC609699), epotoside (NSC141540), doxorubicin (NSC123127), gemcitabine (NSC613327), 5-fluorouracil (NSC19893), paclitaxel (NSC125973), vemurafenib (NSC761431), MSA-2 (NSC828583), SN-011 (NSC837082), adavosertib (NSC754352), prexasertib (NSC758257), carboplatin (NSC241240) and oxaliplatin (NSC266046), were obtained from the National Cancer Institute (NCI) Developmental Therapeutics Program Chemical Repository (21). The FDA-approved anticancer drug set is available from the Developmental Therapeutics Program at https://dtp.cancer.gov/organization/dscb/obtaining/. […] The stock solutions were prepared in dimethyl sulfoxide (DMSO, Sigma-Aldrich, St. Louis, MO, cat. D2650), except for the platinum compounds which were prepared in saline (Quality Biological, Gaithersburg, MD, cat. 114-055-101), at 800-fold the tested concentration and stored at -70 degrees C prior to their use. All drugs and investigational agents were tested over a range starting from a high concentration at or near the clinical Cmax and decreasing in half-log increments. If the clinical Cmax for an agent had not been determined, the highest concentration tested was 10 microM, except for SN-38, which was tested at a high concentration of 1 microM.
Cell Culture. All cells were maintained in an incubator at 37 degrees C and 5% CO2 with 95% humidity. The PDC lines were cultured according to standard operating procedures established by the NCI PDMR (https://pdmr.cancer.gov). Table 3 of the manuscript, lists the cell lines along with the number of the three cell types plated to form the mct-spheroids and media for tumor cell growth. After thawing, all PDC lines, except 997537-175-T-J1-PDC and 415267-285-R-J2-PDC, were cultured in Matrigel-coated flasks prepared with a working solution of 1X Ham's F-12 nutrient mix, without supplementation (Thermo Fisher Scientific, cat. 11765054), 100 U/mL penicillin-streptomycin (Thermo Fisher Scientific, cat. 15140122), and 2.5% Matrigel (Corning Inc., Corning, NY, cat. 354248) for the first three passages. The two PDC lines 997537-175-T-J1-PDC and 415267-285-R-J2-PDC were cultured on uncoated flasks. The 857933-349-R-J2-PDC line was cultured in 6C/Colon 1B media containing advanced DMEM/F-12 (Thermo Fisher Scientific, cat. 12634028), 10 mM HEPES (Thermo Fisher Scientific, cat. 15630080), 1X GlutaMAX supplement (Thermo Fisher Scientific, cat. 35050061), 0.1 mg/mL primocin (InvivoGen, San Diego, CA, cat. ant-pm-2), 10% defined fetal bovine serum, heat inactivated (HyClone Laboratories Inc., Logan, UT, cat. SH30070.03HI), 50% L-WRN conditioned media (ATCC, cat. CRL-3276), 1.25 mM N-Acetyl-L-cysteine (Sigma-Aldrich, cat. A9165), 10 mM nicotinamide (Sigma-Aldrich, cat. N0636), 1X B-27 supplement (Thermo Fisher Scientific, cat. 17504044), 1X N-2 supplement (Thermo Fisher Scientific, cat. […]

[1] = second compound 0.0316 µM, first compound 0.00316 µM
[2] = second compound 0.0316 µM, first compound 0.01 µM
[3] = second compound 0.0316 µM, first compound 0.0316 µM
[4] = second compound 0.0316 µM, first compound 0.1 µM
[5] = second compound 0.1 µM, first compound 0.00316 µM
[6] = second compound 0.1 µM, first compound 0.01 µM
[7] = second compound 0.1 µM, first compound 0.0316 µM
[8] = second compound 0.1 µM, first compound 0.1 µM
[9] = second compound 0.316 µM, first compound 0.00316 µM
[10] = second compound 0.316 µM, first compound 0.01 µM
[11] = second compound 0.316 µM, first compound 0.0316 µM
[12] = second compound 0.316 µM, first compound 0.1 µM
[13] = second compound 1 µM, first compound 0.00316 µM
[14] = second compound 1 µM, first compound 0.01 µM
[15] = second compound 1 µM, first compound 0.0316 µM
[16] = second compound 1 µM, first compound 0.1 µM
[17] = second compound 3.16 µM, first compound 0.00316 µM
[18] = second compound 3.16 µM, first compound 0.01 µM
[19] = second compound 3.16 µM, first compound 0.0316 µM
[20] = second compound 3.16 µM, first compound 0.1 µM
[21] = second compound 10 µM, first compound 0.00316 µM
[22] = second compound 10 µM, first compound 0.01 µM
[23] = second compound 10 µM, first compound 0.0316 µM
[24] = second compound 10 µM, first compound 0.1 µM
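Further: spheroids exposed to agents for 7 days before viability reading.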
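Wherever viability, T/C is given: percent of DMSO vehicle control viability so 100% = vehicle and 0% = no viable signal.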

CC[C@@]1(O)C(=O)OCc2c1cc1n(c2=O)Cc2cc3c(CN(C)C)c(O)ccc3nc2-1 + COC1C(OC(N)=O)C(O)C(Oc2ccc3c(O)c(NC(=O)c4ccc(O)c(CC=C(C)C)c4)c(=O)oc3c2C)OC1(C)C
IC50 (second compound 0.0316 µM): > 100 nM
IC50 (second compound 0.1 µM): > 100 nM
IC50 (second compound 0.316 µM): > 100 nM
IC50 (second compound 1 µM): 95 nM
IC50 (second compound 3.16 µM): > 100 nM
IC50 (second compound 10 µM): > 100 nM
viability, T/C (second compound 0.0316 µM, first compound 0.000316 µM): 116%
viability, T/C (second compound 0.0316 µM, first compound 0.001 µM): 101%
viability, T/C [1]: 99.3%
viability, T/C [2]: 93.1%
viability, T/C [3]: 79.6%
viability, T/C [4]: 48.4%
viability, T/C (second compound 0.1 µM, first compound 0.000316 µM): 111%
viability, T/C (second compound 0.1 µM, first compound 0.001 µM): 99.6%
viability, T/C [5]: 90.4%
viability, T/C [6]: 93.2%
viability, T/C [7]: 69%
viability, T/C [8]: 60.2%
viability, T/C (second compound 0.316 µM, first compound 0.000316 µM): 112%
viability, T/C (second compound 0.316 µM, first compound 0.001 µM): 94.3%
viability, T/C [9]: 84.9%
viability, T/C [10]: 94%
viability, T/C [11]: 77.9%
viability, T/C [12]: 61.6%
viability, T/C (second compound 1 µM, first compound 0.000316 µM): 97.5%
viability, T/C (second compound 1 µM, first compound 0.001 µM): 92.8%
viability, T/C [13]: 99%
viability, T/C [14]: 92.2%
viability, T/C [15]: 83.2%
viability, T/C [16]: 48.3%
viability, T/C (second compound 3.16 µM, first compound 0.000316 µM): 92.5%
viability, T/C (second compound 3.16 µM, first compound 0.001 µM): 106%
viability, T/C [17]: 83%
viability, T/C [18]: 96.4%
viability, T/C [19]: 80%
viability, T/C [20]: 58%
viability, T/C (second compound 10 µM, first compound 0.000316 µM): 103%
viability, T/C (second compound 10 µM, first compound 0.001 µM): 89.4%
viability, T/C [21]: 98.8%
viability, T/C [22]: 95.4%
viability, T/C [23]: 69.7%
viability, T/C [24]: 60.9%

CCc1c2c(nc3ccc(O)cc13)-c1cc3c(c(=O)n1C2)COC(=O)[C@]3(O)CC + COC1C(OC(N)=O)C(O)C(Oc2ccc3c(O)c(NC(=O)c4ccc(O)c(CC=C(C)C)c4)c(=O)oc3c2C)OC1(C)C
IC50 (second compound 0.0316 µM): 22.6 nM
IC50 (second compound 0.1 µM): 21.3 nM
IC50 (second compound 0.316 µM): 25 nM
IC50 (second compound 1 µM): 40.5 nM
IC50 (second compound 3.16 µM): 25.6 nM
IC50 (second compound 10 µM): 24.9 nM
viability, T/C [1]: 73.5%
viability, T/C [2]: 51.3%
viability, T/C [3]: 43.5%
viability, T/C [4]: 41.9%
viability, T/C (second compound 0.0316 µM, first compound 0.316 µM): 24.4%
viability, T/C (second compound 0.0316 µM, first compound 1 µM): 9.02%
viability, T/C [5]: 79.7%
viability, T/C [6]: 49.5%
viability, T/C [7]: 45.1%
viability, T/C [8]: 37.3%
viability, T/C (second compound 0.1 µM, first compound 0.316 µM): 26.5%
viability, T/C (second compound 0.1 µM, first compound 1 µM): 10.1%
viability, T/C [9]: 79%
viability, T/C [10]: 46.1%
viability, T/C [11]: 47.6%
viability, T/C [12]: 43.4%
viability, T/C (second compound 0.316 µM, first compound 0.316 µM): 22%
viability, T/C (second compound 0.316 µM, first compound 1 µM): 12.9%
viability, T/C [13]: 66.9%
viability, T/C [14]: 57%
viability, T/C [15]: 51.8%
viability, T/C [16]: 45%
viability, T/C (second compound 1 µM, first compound 0.316 µM): 23.1%
viability, T/C (second compound 1 µM, first compound 1 µM): 7.35%
viability, T/C [17]: 66.7%
viability, T/C [18]: 51.6%
viability, T/C [19]: 46.9%
viability, T/C [20]: 40.4%
viability, T/C (second compound 3.16 µM, first compound 0.316 µM): 28.5%
viability, T/C (second compound 3.16 µM, first compound 1 µM): 7.68%
viability, T/C [21]: 70.5%
viability, T/C [22]: 55.7%
viability, T/C [23]: 43.6%
viability, T/C [24]: 39.6%
viability, T/C (second compound 10 µM, first compound 0.316 µM): 28%
viability, T/C (second compound 10 µM, first compound 1 µM): 7.11%
